From patent publication US12441742B2, “Naphthyridine compounds as inhibitors of KRAS” (Incyte Corporation, priority 2021, dated 2025) come the findings set out here.

Molecules are shown by their SMILES. Where only a bound is given, the exact number is not on record here.

For assay [1], the target named is T1, KRAS G12C (Homo sapiens, UniProt P01116, G12C). Briefly: KRAS_G12C GDP-GTP exchange assay (bodipy-GDP/GppNHp, SOS1). It is filed as biochemical. To be noted: bodipy-loaded KRAS G12C, 2 hours pre-incubation, 2 hours exchange; read-out: G12C_exchange (KRAS_G12C exchange assay IC50). How it is done: The inhibitor potency of the exemplified compounds was determined in a fluorescence based guanine nucleotide exchange assay, which measures the exchange of bodipy-GDP (fluorescently labeled GDP) for GppNHp (Non-hydrolyzable GTP analog) to generate the active state of KRAS in the presence of SOS1 (guanine nucleotide exchange factor). Inhibitors were serially diluted in DMSO and a volume of 0.1 μL was transferred to the wells of a black low volume 384-well plate. 5 μL/well volume of bodipy-loaded KRAS G12C diluted to 5 nM in assay buffer (25 mM Hepes pH 7.5, 50 mM NaCl, 10 mM MgCl2 and 0.01% Brij-35) was added to the plate and pre-incubated with inhibitor for 2 hours at ambient temperature. Appropriate controls (enzyme with no inhibitor or with a G12C inhibitor (AMG-510)) were included on the plate. The exchange was initiated by the addition of a 5 μL/well volume containing 1 mM GppNHp and 300 nM SOS1 in assay buffer. The 10 μL/well reaction concentration of the bodipy-loaded KRAS G12C, GppNHp, and SOS1 were 2.5 nM, 500 uM, and 150 nM, respectively. The reaction plates were incubated at ambient temperature for 2 hours, a time estimated for complete GDP-GTP exchange in the absence of inhibitor. Internal compounds with confirmed binding were used as positive controls in the assay plates. Fluorescence intensities were measured on a PheraStar plate reader instrument (BMG Labtech) with excitation at 485 nm and emission at 520 nm.
T1 sequence (P01116 1-188 isoform P01116-2 G12C): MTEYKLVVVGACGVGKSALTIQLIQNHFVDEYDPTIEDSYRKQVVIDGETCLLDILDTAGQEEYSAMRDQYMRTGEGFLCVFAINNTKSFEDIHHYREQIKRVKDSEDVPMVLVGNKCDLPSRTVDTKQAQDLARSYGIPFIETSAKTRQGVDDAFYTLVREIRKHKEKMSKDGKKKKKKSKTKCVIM
Either GraphPad prism or XLfit was used to analyze the data. The IC50 values were derived by fitting the data to a four parameter logistic equation producing a sigmoidal dose-response curve with a variable Hill coefficient. Prism equation: Y=Bottom+(Top−Bottom)/(1+10^((Log IC50−X)*Hill slope)); XLfit equation: Y=(A+((B−A)/(1+((X/C)^D)))) where X is the logarithm of inhibitor concentration and Y is the response.

The target of assay [2] is T1, KRAS G12C. Briefly: KRAS_G12C cellular pERK HTRF assay. Type of assay: cell-based. Also on record: host or cells: MIA PaCa-2. To be noted: MIA PaCa-2 (KRAS G12C), 4 hours; read-out: G12C_pERK (KRAS_G12C pERK assay IC50). How it is done:
MIA PaCa-2 (KRAS G12C; ATCC® CRL-1420), A427 (KRAS G12D; ATCC® HTB53), HPAF-II (KRAS G12D; ATCC® CRL-1997) and NCI-H838 (KRAS WT; ATCC® CRL-5844) cells are purchased from ATCC and maintained in RPMI 1640 media supplemented with 10% FBS (Gibco/Life Technologies). The cells are plated at 5000 cells per well (8 uL) into Greiner 384-well low volume, flat-bottom, tissue culture treated white plates and incubated overnight at 37° C., 5% CO2. The next morning, test compound stock solutions are diluted in media at 3x the final concentration, and 4 uL are added to the cells. The plate is mixed by gentle rotation for 30 seconds (250 rpm) at room temperature. The cells are incubated with the KRAS G12C and G12D compounds for 4 hours or 2 hours respectively at 37° C., 5% CO2.
4 uL of 4x lysis buffer with blocking reagent (1:25) (Cisbio) are added to each well and plates are rotated gently (300 rpm) for 30 minutes at room temperature. 4 uL per well of Cisbio anti Phospho-ERK 1/2 d2 is mixed with anti Phospho-ERK 1/2 Cryptate (1:1) are added to each well, mixed by rotation and incubated overnight in the dark at room temperature. Plates are read on the Pherastar plate reader at 665 nm and 620 nm wavelengths. IC50 determination is performed by fitting the curve of inhibitor percent inhibition versus the log of the inhibitor concentration using the GraphPad Prism 7 software.
Background: In TR-FRET formats the signal depends on donor and acceptor labels being close together.

One may read the IC50 as the concentration needed to halve the response being measured. As for `CCN(C)C1CN(c2nc3c(F)c(-c4ccc(F)c5cccnc45)ncc3c3c2nnn3[C@H]2CCN(C(=O)/C=C/CF)[C@H](CC#N)C2)C1` [Example 12, 2-((2S,4S)-4-(4-(3-(ethyl(methyl)amino)azetidin-1-yl)-6-fluoro-7-(5-fluoroquinolin-8-yl)-1H-[1,2,3]triazolo[4,5-c][1,6]naphthyridin-1-yl)-1-((E)-4-fluorobut-2-enoyl)piperidin-2-yl)acetonitrile], the IC50 at KRAS G12C [1] was at most 100 nM; at KRAS G12C [2] it was 100 to 1000 nM.
Consider `C=C(F)C(=O)N1CC[C@H](n2nnc3c(N4CC(N(C)CC)C4)nc4c(F)c(-c5n[nH]c6cc(C)c(C)cc56)ncc4c32)C[C@H]1CC#N` [Example 13, 2-((2S,4S)-4-(7-(5,6-dimethyl-1H-indazol-3-yl)-4-(3-(ethyl(methyl)amino)azetidin-1-yl)-6-fluoro-1H-[1,2,3]triazolo[4,5-c][1,6]naphthyridin-1-yl)-1-(2-fluoroacryloyl)piperidin-2-yl)acetonitrile], for which the IC50 on KRAS G12C [1] was at most 100 nM.
For the compound `C=C(F)C(=O)N1CC[C@H](n2nnc3c(N4CC(N(C)CC)C4)nc4c(F)c(-c5cccc6cccc(C#N)c56)ncc4c32)C[C@H]1CC#N` [Example 14, 8-(1-((2S,4S)-2-(cyanomethyl)-1-(2-fluoroacryloyl)piperidin-4-yl)-4-(3-(ethyl(methyl)amino)azetidin-1-yl)-6-fluoro-1H-[1,2,3]triazolo[4,5-c][1,6]naphthyridin-7-yl)-1-naphthonitrile], the IC50 on KRAS G12C [1] is at most 100 nM; at KRAS G12C [2], 100 to 1000 nM.
Regarding `CCN(C)C1CN(c2nc3c(F)c(-c4cccc5cccc(C#N)c45)ncc3c3c2nnn3[C@H]2CCN(C(=O)/C=C/CF)[C@H](CC#N)C2)C1` [Example 15, 8-(1-((2S,4S)-2-(cyanomethyl)-1-((E)-4-fluorobut-2-enoyl)piperidin-4-yl)-4-(3-(ethyl(methyl)amino)azetidin-1-yl)-6-fluoro-1H-[1,2,3]triazolo[4,5-c][1,6]naphthyridin-7-yl)-1-naphthonitrile], the IC50 at KRAS G12C [1] and at KRAS G12C [2] was at most 100 nM throughout.
